Experimental findings from article PMC9888480, “Carboranyl-1,8-naphthalimide intercalators induce lysosomal membrane permeabilization and ferroptosis in cancer cell lines” (Journal of Enzyme Inhibition and Medicinal Chemistry, 2023) are described below.

What all share (format): cell-based, human
One assay deals with HepG2. The experiment in a line: In vitro cytotoxic activity, MTT assay. The note with it: concentration required to inhibit cell growth by 50%. The source says:
(§1) The in vitro cytotoxic activity of the obtained carborane-1,8-naphthalimide conjugates was investigated by examining their cytotoxic effects using the MTT (3–(4,5-dimethylthiazol-2-yl)-2,5-diphenyltetrazolium bromide) dye assay[38]^,[39] against the human cancer cell line HepG2 established from hepatocellular carcinoma (for compounds 12–19 and 30–37) and against human lung fibroblasts (MRC-5) (for compounds 34–37). The IC50 values—the drug concentration (µM) required to inhibit cell growth by 50%—determined for the synthesised compounds are summarised in Table 2.
(§2) The cytotoxic properties of the synthesised compounds were evaluated using the human hepatocellular carcinoma cell line (HepG2) and human lung fibroblasts (MRC-5). The HepG2 and MRC-5 cell lines were purchased from American Type Culture Collection (ATCC, Manassas, VA, USA). The HepG2 cells were propagated in Eagle’s minimal essential medium (EMEM, ATCC, Manassas, VA, USA), supplemented with 10% inactivated foetal bovine serum (FBS, Life Technologies, Warsaw, Poland) and 100 units/ml penicillin G with […] streptomycin (Life Technologies, Warsaw, Poland). The cells were incubated at 37 °C in a humidified atmosphere containing 5% CO2. Upon reaching 80–90% confluency, the cells were harvested with 0.25% trypsin in 1 mM EDTA (Life Technologies, Warsaw, Poland) and transferred to 96-well microplates at 2 × 10^4 cells/well. After overnight incubation of cells at 37 °C in a humidified atmosphere containing 5% CO2, the culture medium was removed and replaced with a freshly prepared solution of compounds in the culture medium or medium itself as the control group. The stock solutions of each compound were prepared in DMSO at a concentration of 100 mM and were diluted with the growth medium supplemented with 10% FBS to ensure drug dissolution to obtain concentrations ranging from 0.1 to 1000 µM. Cytotoxicity was evaluated using the MTT assay. After incubation with the compounds, the cells were treated with MTT dye solution (5 mg/ml) for 2 h and lysed with a solvent solution containing DMF (45 ml), sodium dodecylsulfate (13.5 g), and distilled water (55 ml). After overnight incubation at 37 °C, optical density at 550 nm, with a reference wavelength of 670 nm, was measured in an ELISA reader (VarioskanLux, Thermo Scientific, Waltham, MA, USA). All determinations were carried out in triplicate. Results were calculated as the percentage of control group viability. The IC50 values of the compounds were calculated in an Excel add-in ED50V10.
(Formazan colour is commonly taken as a measure of viable cells.)

The next assay concerns MRC-5. Put plainly: In vitro cytotoxic activity, MTT assay. The note with it: concentration required to inhibit cell growth by 50%.
Source text: as §1, §2

For assay [1], the system named is HepG2 cells. The experiment in a line: Ca2+ homeostasis determination (Rhod-2 AM). The note with it: HepG2, 24 h, total IC50 concentration. The protocol:
Ca^2+ released was determined by the selective dye Calcium Rhod-2 AM (Thermo Fisher Scientific), which binds specifically to Ca^2+ ions that are related to an increase in dihydrorhod-2 AM concentration, and thus, an enhancement in fluorescence intensity occurred. After treatment, the cells were detached with trypsin (Corning®), washed with 1 ml of DPBS (Capricorn), and then resuspended in EMEM with 2.5 µM Rhod-2 AM. All the samples were incubated for 15 min at 37 °C in the dark, and fluorescence intensity was then analysed at an excitation/emission wavelength of 552/581 nm. The cells were analysed after incubation with the dye with excitation at 488 nm using a FACSCalibur flow cytometer (Becton Dickinson), and the data were analysed using the FlowJo software (Becton Dickinson).

In assay [2] the test system is HepG2 cells. The experiment in a line: Lysosome status (acridine orange and Lysotracker Deep Red staining). Conditions: HepG2, 3 h, total IC50 concentration (5, 4.5, 4, 4.5 µM). The protocol: To analyse the condition of the lysosomes, the cells (2 × 10^5) were stained with the 100 nM LysoTracker™ Deep Red (Thermo Fisher Scientific) fluorescent dye for 30 min under growth conditions. The HepG2 and MRC-5 cells were treated with the tested compounds for 3 h.Final concentration of the compounds for HepG2 cells were as follows: 34–5 µM, 35–4.5 µM, 36–4 µM, 37–4.5 µM, whereas for MRC-5 were: 34–2.1 µM, 35–2 µM, 36–2.3 µM, 37–2.3 µM. Subsequently, the cells were trypsinized, rinsed with 1 ml of DPBS (Capricorn), and then incubated with the dye. Then, cytometric analysis of the stained cells was performed at an excitation/emission wavelength of 647/668 nm.
Lysosomal permeabilization was tested using the acridine orange (AO) dye. After treatment with the compounds, the cell pellets were suspended in 500 µl of DBPS containing AO (Sigma-Aldrich) at the final concentration of 0.5 µg/ml. […] Fluorescence intensity was analysed at an excitation wavelength of 488 nm, and two emission spectra were acquired at 505–550 and 600–650 nm for green and red fluorescence, respectively. The cells were analysed after incubation with the dye, with excitation at 488 nm, using a FACSCalibur flow cytometer (Becton Dickinson), and the data were analysed using the FlowJo software (Becton Dickinson). […]

The subject of assay [3] is HepG2 cells. Put plainly: Cell cycle analysis by flow cytometry (PI). Conditions: HepG2, 24 h, total IC50 concentration; 5% in untreated cells. The protocol:
The DNA content was determined using flow cytometry with PI (Sigma-Aldrich, Steinheim, Germany) staining. After incubation, the cells were trypsinized and washed twice with 1 ml of PBS (Capricorn). In the next step, the cells were fixed with an ice-cold 80% ethanol. After incubation for 1 h at 4 °C, the fixed cells were washed twice with PBS and suspended in the staining PI/RNAse A/PBS buffer (PI 50 µg/ml, RNAse A 100 µg/ml) for 30 min at 37 °C in the dark. PI (Sigma) fluorescence was measured using a FACSCalibur (Becton Dickinson), and data were analysed using the FlowJo software (Becton Dickinson).
On the technique in general: In flow cytometry, cells or beads pass a laser one at a time.

As usually defined, the IC50 is the concentration that gives 50% inhibition. Consider “4-[(6-[(1,2-Dicarba-closo-dodecaborane-1-yl)ethylamino]hexyl)amino]-3-nitro-N-[2-(N-pyrrolidinyl)ethyl]-1,8-naphthalimide [Compound 36]”, for which the half-inhibitory concentration (IC50) is 3630 ± 300 nM in the assay on HepG2 and 2330 ± 20 nM with MRC-5. The “Ca2+ accumulation compared to control” value in the assay with HepG2 cells [1] is “slightest effect”.

Regarding “4-[(6-[(1,2-Dicarba-closo-dodecaborane-1-yl)ethylamino]hexyl)amino]-N-[2-(dimethylamino)ethyl]-3-nitro-1,8-naphthalimide [Compound 34]”, the concentration for half-maximal inhibition (IC50) with HepG2 stood at 4780 ± 790 nM; in the assay on MRC-5, 2130 ± 230 nM. Also, in the assay on HepG2 cells [2], the “AO green/red ratio (LMP)” value is “approximately twofold”.

On to “4-[(6-[(1,7-Dicarba-closo-dodecaborane-1-yl)ethylamino]hexyl)amino]-3-nitro-N-[2-(N-pyrrolidinyl)ethyl]-1,8-naphthalimide [Compound 37]”, for which the figures for the IC50 in the assay with HepG2 and in the assay with MRC-5 were 4230 ± 820 nM and 2260 ± 50 nM, respectively. In addition, the “accumulation of cells in G2M phase” value with HepG2 cells [3] came out at 15%.

Consider “4-[(6-[(1,7-Dicarba-closo-dodecaborane-1-yl)ethylamino]hexyl)amino]-N-[2-(dimethylamino)ethyl]-3-nitro-1,8-naphthalimide [Compound 35]”, for which the IC50 in the assay on HepG2 was 4320 ± 710 nM; with MRC-5, 2140 ± 360 nM. Besides, the “accumulation of cells in G2M phase” value in the assay with HepG2 cells [3] amounted to 15%. Further, the “Ca2+ accumulation compared to control” value with HepG2 cells [1] was “more than threefold”. For the same substance, the “AO green/red ratio (LMP)” value in the assay on HepG2 cells [2] is reported as “approximately twofold”.
